US5770595A, “Oxime substituted therapeutic compounds” (Cell Therapeutics, Inc., priority 1994, dated 1998)

Tests used:
VCAM in HUVEC cells = experiment: cell surface expression of VCAM in HUVEC; assay type: cell-based, human; conditions: human TNF-α 20 ng/ml, 20 hours; FIG. 11
Experimental: Drug inhibitory activity can also be measured by determining levels of vascular cell adhesion molecule (VCAM) in stimulated cells. Early passage human umbilical vein endothelial cells (HUVEC) (obtained from commercial suppliers such as Cell Systems, Inc. or Clonetics) are cultured in media (e.g., Hepes buffered media, Cell Systems) containing 10% fetal bovine serum, and supplemented with a stimulating agent, such as fibroblast growth factor (acidic FGF, Cell Systems, Inc.) or TNF. The cells are plated into wells of a microtiter plate (e.g., 5×10^4 per well) and allowed to incubate at 37° C. for 72 hrs. The resting cells are removed (e.g., 20-30 min treatment with 0.4% EDTA), washed in media (e.g., phosphate buffered saline plus 0.1% bovine serum albumin with 0.01% sodium azide) and labeled on ice with a monoclonal antibody ("first antibody") recognizing human VCAM (e.g., 1 μg of a murine monoclonal antibody recognizing human VCAM, Genzyme). After 60 min on ice, the cells are washed (preferably twice) with cold wash media and incubated with an antibody that recognizes the first antibody (e.g., 1 μg of goat anti-mouse IgG conjugated with phycoerythrin, CalTag, Inc.). After 30 min on ice, the cells are washed twice and analyzed on a flow cytometer (Coulter Elite®) at appropriate emission and excitation wavelengths (e.g., for phycoerytlrin use excitation at 488 nm and emission at 525 nm).
The cells were stimulated with human TNF-α (20 ng/ml) for 20 hours and then stained for immunofluorescence using a monoclonal antibody recognizing VCAM, followed by a goat anti-mouse antibody conjugated to phycoerythrin. The cells were analyzed for antibody binding using flow cytometry. […] 1521 and 1522 at the indicated drug concentrations.
This example was used to investigate inhibition of vascular cell adhesion molecule (VCAM) expression on HUVEC by inventive compound no. 2525. VCAM expression by endothelial cells is an early event in atherogenesis and multiple sclerosis, among other various autoimmune diseases. FIG. 17, a plot of percent surface expression versus concentration of compound no.

murine thymocyte = experiment: thymocyte proliferation stimulated by ConA and IL-1α; assay type: cell-based, murine (female Balb/C mice); conditions: ConA 0.25 μg/ml, IL-1α 12.5 ng/ml; drug 2 h prior
Experimental: A thymocyte costimulator assay is conducted to evaluate the inventive compounds to inhibit activation and proliferation of thymocytes caused by stimulation with Con A and interleukin-1 (IL-1), or […]. Thymuses are obtained from mice (e.g., female Balb/C mice) and the thymuses are removed and dissociated into culture media (e.g., RPMI 1640 without serum supplementation). The dissociated thymus tissue and cell suspension is transferred to centrifuge tubes and allowed to settle, washed with HBSS and resuspended in serum-supplemented culture media (e.g., RPMI 1640 with 10% fetal calf serum). Any contaminating red cells are lysed, and viable cells are resuspended and counted. Thymocytes are plated (e.g., 96-well plates at a density of 2×10^5 cells/well) and a stimulating agent, such as Con A, IL-1 (e.g., IL-1α) or IL-2 is added to the well. The cells are incubated for 4 days at 37° C. On the fourth day, the cells are pulsed with tritiated thymidine and cell proliferation determined. […]
1521 on inhibition of murine thymocyte proliferation stimulated by Concanavalin A (ConA) and interleukin-I alpha (IL-1α). Thymuses were obtained from normal, female Balb/C mice. The thymuses were dissociated and plated into 96-well plates at a density of 2×10^5 cells/well. […] The cells were harvested and incorporated tritiated thymidine was determined in a liquid scintillation counter. […]

human stromal cells = experiment: proliferation of human stromal cells stimulated with PDGF; assay type: cell-based; conditions: 50 ng/ml PDGF-BB
Experimental: Another assay for measuring activity of the inventive compounds involves determining PDGF (platelet derived growth factor) proliferative response using human-derived stromal cells. Human stromal cells are plated (e.g., about 2000 cells per well) in defined media (e.g., 69% McCoy's, 12.5% fetal calf serum, 12.5% horse serum, 1% antibiotics, 1% glutamine, 1% vitamin supplement, 0.8% essential amino acids, 1% sodium pyruvate, 1% sodium bicarbonate, 0.4% non-essential amino acids and 0.36% hydrocortisone). Two to three days later, the stromal cells are starved in serum-free media. Twenty four hours later, the cells are treated with a stimulating agent, such as PDGF-AA, PDGF-BB or basic FGF (fibroblast growth factor) with or without IL-1α or TNF, and tritiated thymidine. Cell proliferation is determined by liquid scintillation counting.
This example illustrates the ability of inventive compounds nos. […] This assay is a model for restenosis and treatment of atherosclerosis and coronary artery disease. Stromal cells were starved in serum-free media for one day and then stimulated with 50 ng/ml PDGF-BB. The drugs were added at the indicated concentrations one hour prior to PDGF stimulation. Tritiated thymidine was added for one day at the time of PDGF stimulation and the cells were harvested and counted by liquid scintillation counting 24 hours later. […]

| SMILES | inhibition of cell surface expression of VCAM (VCAM in HUVEC cells) | inhibition of thymocyte proliferation, ConA + IL-1α (murine thymocyte) | inhibition of proliferation of stromal cells stimulated with PDGF (human stromal cells) |
| --- | --- | --- | --- |
| CC(CCCCn1c(=O)c2c(ncn2C)n(C)c1=O)=NO [Compound no. 1521] | inhibit cell surface expression of VCAM in HUVEC cells | inhibited thymocyte proliferation in a dose-response manner | strongly inhibit proliferation of human stromal cells |
| CON=C(C)CCCCn1c(=O)c2c(ncn2C)n(C)c1=O [Compound no. 1522] | inhibit cell surface expression of VCAM in HUVEC cells | inhibited thymocyte proliferation | strongly inhibit proliferation of human stromal cells |
